Source: patent US4637999A, “Substituted cephalosporins as anti-inflammatory and antidegenerative agents” (Merck & Co., Inc., priority 1983, dated 1987)

Molecular target: T1, Human Polymorphonuclear Leukocyte Elastase (Homo sapiens, UniProt P08246)
T1 sequence (P08246 30-267): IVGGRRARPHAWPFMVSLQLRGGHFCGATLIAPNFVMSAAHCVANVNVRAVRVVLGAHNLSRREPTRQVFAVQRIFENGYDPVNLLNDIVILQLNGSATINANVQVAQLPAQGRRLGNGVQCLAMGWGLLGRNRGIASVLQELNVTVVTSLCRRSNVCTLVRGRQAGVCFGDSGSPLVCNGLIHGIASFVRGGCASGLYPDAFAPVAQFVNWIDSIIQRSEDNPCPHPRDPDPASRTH
Test: biochemical
Details: not given

SMILES	IC50 [µM]
COC(=O)C1=C(COC(C)=O)CSC2C(OC(=O)Cc3ccccc3)C(=O)N12 (centres unmarked) [R1=OCOCH2 .phi., B=OCH3]	9.87
CC(=O)OCC1=C(C(=O)OC(C)(C)C)N2C(=O)C(OC(=O)Cc3ccccc3)C2SC1 (centres unmarked) [R1=OCOCH2 .phi., B=OtBu]	6.7

Same assay, conditions: 50% inhibition of enzyme activity 2 minutes after zero time; crude PMN extract, 0.2 mM Boc-AAPAN, pH 7.5, 410 mμ; read-out: ED50 (the source's name) (converted)

SMILES	IC50 [µM]
COC(=O)CCCOC(=O)C1=C(COC(C)=O)CSC2C(OC)C(=O)N12 (centres unmarked) [R1=OCH3, B=O(CH2)3 COOCH3]	1.29
COC(=O)c1ccc(COC(=O)C2=C(COC(C)=O)CSC3C(OC)C(=O)N23)cc1 (centres unmarked) [R1=OCH3, B=OCH2 .phi.(p-COOCH3)]	0.689
COC1C(=O)N2C(C(=O)OCC=C(C)C)=C(COC(C)=O)CSC12 (centres unmarked) [R1=OCH3, B=OCH2 CHC(CH3)2]	2.81
CCOC(=O)COC(=O)C1=C(COC(C)=O)CSC2C(OC)C(=O)N12 (stereo not drawn) [R1=OCH3, B=OCH2 COOC2 H5, Ethoxycarbonylmethyl 3-acetyloxymethyl-7α-methoxy-8-oxo-5-thia-1-azabicyclo[4.2.0]oct-2-ene-2-carboxylate]	1.07
COC(=O)C1=C(COC(C)=O)CSC2C(OC)C(=O)N12 (centres unmarked) [R1=OCH3, B=OCH3]	8.3
CO[C@H]1C(=O)N2C(C(=O)OC(C)(C)C)=C(COC(C)=O)CS[C@H]12 [R1=OCH3, B=OtBu, t-Butyl 3-acetyloxymethyl-7α-methoxy-8-oxo-5-thia-1-azabicyclo(4.2.0)oct-2-ene-2-carboxylate]	10.2
CC(=O)OCC1=C(C(=O)OCc2ccccc2)N2C(=O)C(OC=O)C2SC1 (centres unmarked) [R1=OCHO, B=OCH2 .phi.]	5.11
COC(=O)C1=C(COC(C)=O)CSC2C(OC=O)C(=O)N12 (centres unmarked) [R1=OCHO, B=OCH3]	9.51
COC(=O)C1=C(COC(C)=O)CSC2C(OC(=O)c3ccccc3)C(=O)N12 (centres unmarked) [R1=OCO.phi., B=OCH3]	12.8
